Assays:
[1] = molecular target: T1, Human immunodeficiency virus type 1 reverse transcriptase (Human immunodeficiency virus 1, UniProt Q72547); experiment: HIV-1 reverse transcriptase inhibitory activity against Ile 100 mutant using (poly)rC600*(oligo)dGT as template primer.
[2] = molecular target: Human immunodeficiency virus type 1 reverse transcriptase (Human immunodeficiency virus 1) (UniProt Q72547); settings: MT4
Description: Inhibitory activity against HIV-1 Cys 181 mutant in MT-4 cells.

[3] = molecular target: T1, Human immunodeficiency virus type 1 reverse transcriptase; experiment: HIV-1 reverse transcriptase inhibitory activity against Asn103 mutant using (poly)rC600*(oligo)dGT as template primer.
[4] = molecular target: Human immunodeficiency virus type 1 reverse transcriptase (Human immunodeficiency virus 1) (UniProt Q72547); settings: MT4; remark: listed apart in the source
Description: Inhibitory activity against HIV-1 Asn 103 mutant in MT-4 cells.

[5] = molecular target: Human immunodeficiency virus type 1 reverse transcriptase (Human immunodeficiency virus 1) (UniProt Q72547); settings: MT4; remark: listed apart in the source
Description: Inhibition of wild type HIV-1 in MT-4 cell culture (human T cell line)

[6] = molecular target: Human immunodeficiency virus type 1 reverse transcriptase (Human immunodeficiency virus 1) (UniProt Q72547); settings: MT4; remark: listed apart in the source
Description: Inhibitory activity against HIV-1 Ile 100 mutant in MT-4 cells.

[7] = molecular target: T1, Human immunodeficiency virus type 1 reverse transcriptase; experiment: HIV-1 reverse transcriptase inhibitory activity against Wild Type Reverse transcriptase using (poly)rC600*(oligo)dGT as template primer.
[8] = molecular target: T1, Human immunodeficiency virus type 1 reverse transcriptase; experiment: HIV-1 reverse transcriptase inhibitory activity against Cys181 mutant using (poly)rC600*(oligo)dGT as template primer.
MT4 = experiment: Inhibitory activity against HIV-1 Wild Type in MT-4 cell culture (human T-cell line with 50% human AB serum); type: functional; settings: read-out: ED50 (the source's name)

Work on `CC(=O)c1ccc(F)c(C2CC2NC(=O)Nc2ccc(Br)cn2)c1O` (stereo not drawn) yielded an IC50 [1] of 18 nM, an ED50 [2] of 113 nM and an IC50 [3] of 70 nM. It also gave an ED50 [4] of 561 nM, an ED50 [5] of 21 nM and an ED50 [6] of 50 nM. For the same compound, the IC50 [7] was 3.5 nM and the IC50 [8] was 8 nM.
`CCOc1ccc(F)c(C2CC2NC(=O)Nc2ccc(Cl)cn2)c1F` (stereo not drawn) gave an IC50 [1] of 81 nM, an ED50 [2] of 163 nM and an IC50 [3] of 473 nM. It also gave an ED50 [4] of 544 nM, an ED50 [5] of 31 nM and an ED50 [6] of 816 nM. It also gave an IC50 [7] of 1.6 nM and an IC50 [8] of 14 nM.
`CCC(=O)c1ccc(F)c(C2CC2NC(=O)Nc2ccc(Cl)cn2)c1O` (stereo in doubt; 19) [listing 1 of 2 here] showed an EC50 (MT4; Homo sapiens, MT4) of 51 nM, an IC50 [1] of 115 nM and an IC50 [3] of 82 nM. For the same compound, the IC50 [7] was 3.2 nM and the IC50 [8] was 19 nM.
Work on `COc1ccc2c(c1)N(C(=O)OC(C)C)C(CSC)C(S)=N2` (stereo not drawn) yielded an EC50 (MT4; Homo sapiens, MT4) of 320 nM, an IC50 [1] of 9 nM and an ED50 [2] of 73 nM. The IC50 [3] was 56 nM, the ED50 [4] was 500 nM and the ED50 [5] was 9 nM. The ED50 [6] was 72 nM, the IC50 [7] was 8 nM and the IC50 [8] was 9 nM.
Work on `CC(=O)c1ccc(F)c(C2CC2NC(=O)Nc2ccc(C#N)cn2)c1O` (stereo not drawn) yielded an IC50 [1] of 13 nM, an ED50 [2] of 230 nM and an IC50 [3] of 98 nM. The ED50 [4] was 104 nM, the ED50 [5] was 8 nM and the ED50 [6] was 40 nM. It also gave an IC50 [7] of 5.3 nM and an IC50 [8] of 16 nM.
`CCC(=O)c1ccc(F)c(C2CC2NC(=O)Nc2ccc(Br)cn2)c1O` (stereo in doubt; 18) [listing 1 of 2 here] showed an ED50 [2] of 95 nM, an ED50 [4] of 358 nM and an ED50 [5] of 12 nM. It also gave an ED50 [6] of 53 nM.
`CCC(=O)c1ccc(F)c(C2CC2NC(=O)Nc2ccc(C#N)cn2)c1O` (stereo not drawn) showed an IC50 [1] of 32 nM, an ED50 [2] of 46 nM and an IC50 [3] of 97 nM. It also gave an ED50 [4] of 137 nM, an ED50 [5] of 3 nM and an ED50 [6] of 69 nM. The IC50 [7] was 6.8 nM and the IC50 [8] was 16 nM.
For `CCOc1ccc(F)c(C2CC2NC(=O)Nc2cc(Cl)cnn2)c1Cl` (stereo not drawn), the IC50 [1] was 140 nM, the ED50 [2] was 2300 nM and the IC50 [3] was > 2600 nM. The ED50 [4] was > 5000 nM, the ED50 [5] was 78 nM and the ED50 [6] was 4400 nM. It also gave an IC50 [7] of 16 nM and an IC50 [8] of 260 nM.
`CC(C)Nc1cccnc1N1CCN(C(=O)c2cc3cc(NS(C)(=O)=O)ccc3[nH]2)CC1` [DELAVIRDINE] was tested, and the EC50 (MT4; Homo sapiens, MT4) was 320 nM.
Compound `CCOc1ccc(Cl)c(C2CC2NC(=O)Nc2ccc(Cl)cn2)c1F` (stereo not drawn) has an IC50 [1] of 52 nM, an ED50 [2] of 104 nM and an IC50 [3] of 237 nM. For the same compound, the ED50 [4] was 780 nM, the ED50 [5] was 9 nM and the ED50 [6] was 139 nM. For the same compound, the IC50 [7] was 1.3 nM and the IC50 [8] was 21 nM.
With `CCC(=O)c1ccc(F)c(C2CC2NC(=O)Nc2ccc(Br)cn2)c1O` (stereo in doubt; 17) [listing 1 of 2 here] the ED50 [2] was 69 nM, the ED50 [4] was 80 nM and the ED50 [5] was 8 nM. For the same compound, the ED50 [6] was 100 nM.
For `CCC(=O)c1ccc(F)c(C2CC2NC(=O)Nc2ccc(Br)cn2)c1O` (stereo in doubt; 17) [listing 2 of 2 here], the EC50 (MT4; Homo sapiens, MT4) was 58 nM, the IC50 [1] was 171 nM and the IC50 [3] was 83 nM. The IC50 [7] was 3.8 nM and the IC50 [8] was 16 nM.
`O=C1Nc2ccc(Cl)cc2[C@@](C#CC2CC2)(C(F)(F)F)O1` [EFAVIRENZ] gave an EC50 (MT4; Homo sapiens, MT4) of 50 nM.
In the case of `COc1ccc(C(C)=O)c(F)c1CCNC(=O)Nc1ccc(Cl)cn1`, the IC50 [1] is reported as 11200 nM, the ED50 [2] is reported as > 20000 nM and the IC50 [3] is reported as > 2700 nM. For the same compound, the ED50 [4] was 3280 nM, the ED50 [5] was 273 nM and the ED50 [6] was > 20000 nM. The IC50 [7] was 109 nM and the IC50 [8] was 10100 nM.
In the case of `COc1ccc(OC)c(CCNC(=O)Nc2ccc(Cl)cn2)c1F`, the IC50 [1] is reported as 140 nM, the ED50 [2] is reported as > 5000 nM and the IC50 [3] is reported as 224 nM. The ED50 [4] was 1130 nM, the ED50 [5] was 28 nM and the ED50 [6] was 3800 nM. For the same compound, the IC50 [8] was 140 nM.
Compound `CCC(=O)c1ccc(F)c(C2CC2NC(=O)Nc2ccc(Cl)cn2)c1O` (stereo in doubt; 13) [listing 1 of 2 here] has an IC50 [1] of 76 nM, an IC50 [3] of 57 nM and an IC50 [7] of 9 nM. For the same compound, the IC50 [8] was 51 nM.
`COc1c(C(C)=O)ccc(F)c1CCNC(=O)Nc1ccc(Cl)cn1` was tested, and the IC50 [1] was 26200 nM, the ED50 [2] was > 5000 nM and the IC50 [3] was > 2700 nM. For the same compound, the ED50 [4] was > 5000 nM, the ED50 [5] was 819 nM and the ED50 [6] was > 5000 nM. The IC50 [7] was 224 nM and the IC50 [8] was 12700 nM.
With `CCC(=O)c1ccc(F)c(C2CC2NC(=O)Nc2ccc(Cl)cn2)c1O` (stereo in doubt; 19) [listing 2 of 2 here] the ED50 [2] was 100 nM, the ED50 [4] was 200 nM and the ED50 [5] was 9 nM. It also gave an ED50 [6] of 100 nM.
In the case of `O=C(Nc1ccc(Cl)cn1)NC1CC1c1c(F)ccc(O)c1Cl` (stereo not drawn), the IC50 [1] is reported as 4100 nM, the ED50 [2] is reported as > 5000 nM and the IC50 [3] is reported as > 2700 nM. For the same compound, the ED50 [4] was > 5000 nM, the ED50 [5] was 110 nM and the ED50 [6] was > 5000 nM. The IC50 [7] was 135 nM and the IC50 [8] was 4300 nM.
For `CCC(=O)c1ccc(F)c(C2CC2NC(=O)Nc2ccc(Br)cn2)c1O` (stereo in doubt; 18) [listing 2 of 2 here], the EC50 (MT4) was 56 nM, the IC50 [1] was 14 nM and the IC50 [3] was 41 nM. For the same compound, the IC50 [7] was 4.8 nM and the IC50 [8] was 10 nM.
`CCOc1ccc(Cl)c(C2CC2NC(=O)Nc2ccc(C#N)cn2)c1F` (stereo not drawn) was tested, and the IC50 [1] was 27 nM, the ED50 [2] was 200 nM and the IC50 [3] was 192 nM. The ED50 [4] was 400 nM, the ED50 [5] was 4 nM and the ED50 [6] was 53 nM. It also gave an IC50 [7] of 2.7 nM and an IC50 [8] of 20 nM.
`CCC(=O)c1ccc(F)c(C2CC2NC(=O)Nc2ccc(Cl)cn2)c1O` (stereo in doubt; 20) [listing 1 of 2 here] was tested, and the EC50 (MT4) was 80 nM, the IC50 [1] was 14 nM and the IC50 [3] was 77 nM. The IC50 [7] was 2.7 nM and the IC50 [8] was 4 nM.
With `CCOc1ccc(F)c(C2CC2NC(=O)Nc2ccc(C#N)cn2)c1Cl` (stereo not drawn) the IC50 [1] was 200 nM, the ED50 [2] was 270 nM and the IC50 [3] was 183 nM. For the same compound, the ED50 [4] was > 5000 nM, the ED50 [5] was 8 nM and the ED50 [6] was 234 nM. For the same compound, the IC50 [7] was 4.3 nM and the IC50 [8] was 130 nM.
`Cc1ccnc2c1NC(=O)c1cccnc1N2C1CC1` [NEVIRAPINE] was tested, and the EC50 (MT4; Homo sapiens, MT4) was > 5000 nM.
In the case of `CCOc1ccc(F)c(CCNC(=O)Nc2ccc(Br)cn2)c1Cl`, the IC50 [1] is reported as 1680 nM, the ED50 [2] is reported as > 5000 nM and the IC50 [3] is reported as > 2400 nM. For the same compound, the ED50 [4] was > 5000 nM, the ED50 [5] was 70 nM and the ED50 [6] was > 10000 nM. For the same compound, the IC50 [8] was 240 nM.
`CCC(=O)c1ccc(F)c(C2CC2NC(=O)Nc2ccc(Cl)cn2)c1O` (stereo in doubt; 13) [listing 2 of 2 here] showed an ED50 [2] of 340 nM, an ED50 [4] of 350 nM and an ED50 [5] of 27 nM. For the same compound, the ED50 [6] was 220 nM.
With `CN(C)c1ccc(F)c(CCNC(=O)Nc2ccc(Br)cn2)c1F` the IC50 [1] was > 2500 nM, the ED50 [2] was > 20000 nM and the IC50 [3] was > 2500 nM. For the same compound, the ED50 [4] was > 20000 nM, the ED50 [5] was 500 nM and the ED50 [6] was > 20000 nM. It also gave an IC50 [8] of 1500 nM.
With `CCOc1ccc(Cl)c(C2CC2NC(=O)Nc2cc(Cl)cnn2)c1F` (stereo not drawn) the IC50 [1] was 1000 nM, the ED50 [2] was > 5000 nM and the IC50 [3] was > 2600 nM. For the same compound, the ED50 [4] was > 5000 nM, the ED50 [5] was 18 nM and the ED50 [6] was > 5000 nM. The IC50 [7] was 5.2 nM and the IC50 [8] was 1000 nM.
`CCC(=O)c1ccc(F)c(C2CC2NC(=O)Nc2ccc(Cl)cn2)c1O` (stereo in doubt; 20) [listing 2 of 2 here] showed an ED50 [2] of 100 nM, an ED50 [4] of 470 nM and an ED50 [5] of 13 nM. It also gave an ED50 [6] of 75 nM.
